Biological target: T1, ΔF508-CFTR (Homo sapiens, UniProt P13569, DEL508-508)
T1 construct: Primary lung epithelial cells homozygous for the Cystic Fibrosis-causing ΔF508 mutation were differentiated; endogenous in cells; host or cells: primary human lung (bronchial) epithelial cells homozygous for ΔF508, differentiated at air-liquid interface
Experiment: hBE equivalent current (Ieq) assay
Assay type: cell-based
Conditions: compound at 10 uM and VX-809 at 1 uM, relative to VX-809 (1 uM); primary lung epithelial cells homozygous for ΔF508, 24 hours treatment; AUC of equivalent chloride current
Experimental: ii. hBE Equivalent Current (Ieq) Assay
Primary lung epithelial cells homozygous for the Cystic Fibrosis-causing ΔF508 mutation were differentiated for a minimum of 4 weeks in an air-liquid interface on Costar 24 well HTS filter plates prior to the equivalent current (Ieq) measurements. Cells were apically mucus-washed for 30 minutes 24 h prior to treatment with compounds. The basolateral media was removed and replaced with media containing the compound of interest diluted to its final concentration from DMSO stocks. Treated cells were incubated at 37° C. and 5% CO2 for 24 hours. At the end of the treatment period, the media was changed to the Ieq experimental solution for 30 minutes before the experiment and plates are maintained in a CO2-free incubator during this period. The plates containing the cells were then placed in pre-warmed heating blocks at 36° ° C.±0.5 for 15 minutes before measurements are taken. The transepithelial voltage (VT) and conductance (GT) were measured using a custom 24 channel current clamp (TECC-24) with 24 well electrode manifold. The Ieq assay measurements were made following additions with standardized time periods: • 1. The baseline VT and GT values were measured for approximately 20 minutes. • 2. Benzamil was added to block ENaC for 15 minutes. • 3. Forskolin plus VX-770 (ivacaftor) were added to maximally activate ΔF508-CFTR for 27 minutes. • 4. Bumetanide was added to inhibit the NaK2Cl cotransporter and shut-off secretion of chloride.
The activity data captured was the area under the curve (AUC) for the traces of the equivalent chloride current. The AUC was collected from the time of the forskolin/VX-770 addition until the inhibition by bumetanide addition. Correction in response to compound treatment was scored as the increase in the AUC for compound-treated samples over that of vehicle-treated samples.

T1 sequence (P13569 with tags, fused parts or gaps DEL508-508): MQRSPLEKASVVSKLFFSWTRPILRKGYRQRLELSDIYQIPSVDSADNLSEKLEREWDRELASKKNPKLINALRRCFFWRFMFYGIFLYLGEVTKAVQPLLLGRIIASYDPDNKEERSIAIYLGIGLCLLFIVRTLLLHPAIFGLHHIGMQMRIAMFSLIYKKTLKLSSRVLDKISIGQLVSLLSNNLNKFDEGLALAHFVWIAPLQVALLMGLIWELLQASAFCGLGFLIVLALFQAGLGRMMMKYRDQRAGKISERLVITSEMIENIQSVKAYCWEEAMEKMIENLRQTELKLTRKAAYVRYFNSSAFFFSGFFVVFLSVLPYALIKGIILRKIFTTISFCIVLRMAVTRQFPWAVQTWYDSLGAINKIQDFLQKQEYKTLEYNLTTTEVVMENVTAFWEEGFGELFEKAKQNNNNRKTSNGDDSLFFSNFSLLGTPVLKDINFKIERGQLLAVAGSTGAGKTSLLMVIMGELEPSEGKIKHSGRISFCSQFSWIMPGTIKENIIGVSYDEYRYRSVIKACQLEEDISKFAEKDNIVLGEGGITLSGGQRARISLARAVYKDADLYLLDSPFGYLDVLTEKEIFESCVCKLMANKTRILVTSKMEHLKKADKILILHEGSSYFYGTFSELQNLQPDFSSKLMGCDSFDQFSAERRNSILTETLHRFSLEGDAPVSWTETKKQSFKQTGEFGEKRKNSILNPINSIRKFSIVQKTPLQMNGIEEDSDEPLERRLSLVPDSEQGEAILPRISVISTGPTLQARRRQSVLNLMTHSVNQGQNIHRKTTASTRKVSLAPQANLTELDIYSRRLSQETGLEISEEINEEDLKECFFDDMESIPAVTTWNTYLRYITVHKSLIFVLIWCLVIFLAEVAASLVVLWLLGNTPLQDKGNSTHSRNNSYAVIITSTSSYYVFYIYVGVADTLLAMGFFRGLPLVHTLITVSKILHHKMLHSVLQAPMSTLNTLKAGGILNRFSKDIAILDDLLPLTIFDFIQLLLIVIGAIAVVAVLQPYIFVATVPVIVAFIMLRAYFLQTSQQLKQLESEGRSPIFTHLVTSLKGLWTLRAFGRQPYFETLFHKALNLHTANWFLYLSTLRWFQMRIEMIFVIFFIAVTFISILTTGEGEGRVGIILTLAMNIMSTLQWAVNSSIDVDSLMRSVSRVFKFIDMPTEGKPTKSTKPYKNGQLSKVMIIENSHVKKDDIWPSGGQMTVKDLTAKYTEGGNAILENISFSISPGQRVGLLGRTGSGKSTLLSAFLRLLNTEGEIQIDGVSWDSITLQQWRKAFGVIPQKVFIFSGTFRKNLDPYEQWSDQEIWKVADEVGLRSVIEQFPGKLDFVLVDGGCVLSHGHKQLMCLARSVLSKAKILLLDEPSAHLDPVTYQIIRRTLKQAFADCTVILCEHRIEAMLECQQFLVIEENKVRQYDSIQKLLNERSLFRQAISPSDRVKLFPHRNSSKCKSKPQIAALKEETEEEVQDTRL

CC(=O)O[C@H](C)c1nnc([C@H]2C[C@H](NC(=O)c3cc(-c4ccccc4)on3)C2)o1
Ieq (% VX-809): ** (activity ≥200% of VX-809 (1 uM) with compound at 10 uM and VX-809 at 1 uM)

O=C(N[C@H]1C[C@H](n2ccc(CO)n2)C1)c1cc(-c2ccccc2)on1
Ieq (% VX-809): ** (activity ≥200% of VX-809 (1 uM) with compound at 10 uM and VX-809 at 1 uM)

C[C@@H](O)c1nnc([C@H]2C[C@@H](NC(=O)c3cc(-c4cccc(F)c4)on3)C2)o1
Ieq (% VX-809): * (activity 100-200% of VX-809 (1 uM) with compound at 10 uM and VX-809 at 1 uM)

C[C@H](O)c1nc([C@H]2C[C@@H](NC(=O)c3cc(-c4ccccc4)on3)C2)no1
Ieq (% VX-809): * (activity 100-200% of VX-809 (1 uM) with compound at 10 uM and VX-809 at 1 uM)

C[C@H](O)c1nnc(CC2CC(NC(=O)c3cc(-c4ccccc4)on3)C2)o1 (some centres unmarked)
Ieq (% VX-809): * (activity 100-200% of VX-809 (1 uM) with compound at 10 uM and VX-809 at 1 uM)

C[C@@H](O)c1nnc(C[C@H]2C[C@@H](NC(=O)c3cc(-c4ccccc4)on3)C2)o1
Ieq (% VX-809): ** (activity ≥200% of VX-809 (1 uM) with compound at 10 uM and VX-809 at 1 uM)

C[C@@H](O)c1nnc([C@H]2C[C@@H](NC(=O)c3cc(-c4ccc(O)cc4)on3)C2)o1
Ieq (% VX-809): * (activity 100-200% of VX-809 (1 uM) with compound at 10 uM and VX-809 at 1 uM)

O=C(N[C@H]1C[C@@H](c2nc(CO)no2)C1)c1cc(-c2ccccc2)on1
Ieq (% VX-809): ** (activity ≥200% of VX-809 (1 uM) with compound at 10 uM and VX-809 at 1 uM)

O=C(NC1CC(n2cc(CO)cn2)C1)c1cc(-c2ccccc2)on1 (centres unmarked)
Ieq (% VX-809): ** (activity ≥200% of VX-809 (1 uM) with compound at 10 uM and VX-809 at 1 uM)

O=C(NC1CC(n2ccc(CO)n2)C1)c1cc(-c2ccccc2)on1 (centres unmarked)
Ieq (% VX-809): ** (activity ≥200% of VX-809 (1 uM) with compound at 10 uM and VX-809 at 1 uM)

C[C@@H](O)c1noc(C2CC(NC(=O)c3cc(-c4ccccc4)on3)C2)n1 (some centres unmarked)
Ieq (% VX-809): ** (activity ≥200% of VX-809 (1 uM) with compound at 10 uM and VX-809 at 1 uM)

C[C@H](O)c1nnc(C[C@H]2C[C@@H](NC(=O)c3cc(-c4ccccc4)on3)C2)s1
Ieq (% VX-809): ** (activity ≥200% of VX-809 (1 uM) with compound at 10 uM and VX-809 at 1 uM)

O=C(N[C@H]1CC[C@@H](c2nnc(CO)o2)CC1)c1cc(-c2ccccc2)on1
Ieq (% VX-809): * (activity 100-200% of VX-809 (1 uM) with compound at 10 uM and VX-809 at 1 uM)

C[C@H](O)c1cn([C@H]2C[C@H](NC(=O)c3cc(-c4ccccc4)on3)C2)nn1
Ieq (% VX-809): ** (activity ≥200% of VX-809 (1 uM) with compound at 10 uM and VX-809 at 1 uM)

C[C@H](O)c1noc([C@H]2C[C@@H](NC(=O)c3cc(-c4ccccc4)on3)C2)n1
Ieq (% VX-809): * (activity 100-200% of VX-809 (1 uM) with compound at 10 uM and VX-809 at 1 uM)

C[C@@H](O)c1cnn([C@H]2C[C@H](NC(=O)c3cc(-c4ccccc4)on3)C2)c1
Ieq (% VX-809): ** (activity ≥200% of VX-809 (1 uM) with compound at 10 uM and VX-809 at 1 uM)

O=C(N[C@H]1C[C@@H](c2nnc([C@@H](O)CO)s2)C1)c1cc(-c2ccccc2)on1
Ieq (% VX-809): ** (activity ≥200% of VX-809 (1 uM) with compound at 10 uM and VX-809 at 1 uM)

O=C(N[C@H]1C[C@H](c2nnc(C3CCC3)o2)C1)c1cc(-c2ccccc2)on1
Ieq (% VX-809): ** (activity ≥200% of VX-809 (1 uM) with compound at 10 uM and VX-809 at 1 uM)

C[C@@H](O)c1nnc(C2CC(NC(=O)c3cc(-c4ccccc4F)on3)C2)o1 (some centres unmarked)
Ieq (% VX-809): * (activity 100-200% of VX-809 (1 uM) with compound at 10 uM and VX-809 at 1 uM)

C[C@@H](O)c1noc([C@H]2C[C@@H](NC(=O)c3cc(-c4ccccc4)on3)C2)n1
Ieq (% VX-809): * (activity 100-200% of VX-809 (1 uM) with compound at 10 uM and VX-809 at 1 uM)

C[C@@H](O)c1cn([C@H]2C[C@H](NC(=O)c3cc(-c4ccccc4)on3)C2)nn1
Ieq (% VX-809): ** (activity ≥200% of VX-809 (1 uM) with compound at 10 uM and VX-809 at 1 uM)

CC(C)CO[C@H](C)c1nnc([C@H]2C[C@H](NC(=O)c3cc(-c4ccccc4)on3)C2)o1
Ieq (% VX-809): * (activity 100-200% of VX-809 (1 uM) with compound at 10 uM and VX-809 at 1 uM)

O=C(NC1CCCC(n2cc(CO)nn2)C1)c1cc(-c2ccccc2)on1 (centres unmarked)
Ieq (% VX-809): * (activity 100-200% of VX-809 (1 uM) with compound at 10 uM and VX-809 at 1 uM)

C[C@@H](O)c1ccn([C@H]2C[C@H](NC(=O)c3cc(-c4ccccc4)on3)C2)n1
Ieq (% VX-809): ** (activity ≥200% of VX-809 (1 uM) with compound at 10 uM and VX-809 at 1 uM)

O=C(N[C@H]1C[C@H](n2cc(CO)cn2)C1)c1cc(-c2ccccc2)on1
Ieq (% VX-809): * (activity 100-200% of VX-809 (1 uM) with compound at 10 uM and VX-809 at 1 uM)

C[C@@H](O)c1nnc([C@H]2C[C@@H](NC(=O)c3cc(-c4ccc(O)c(O)c4)on3)C2)o1
Ieq (% VX-809): * (activity 100-200% of VX-809 (1 uM) with compound at 10 uM and VX-809 at 1 uM)

C[C@@H](O)c1nnc([C@H]2C[C@@H](NC(=O)c3cc(-c4cccc(O)c4)on3)C2)o1
Ieq (% VX-809): * (activity 100-200% of VX-809 (1 uM) with compound at 10 uM and VX-809 at 1 uM)

C[C@@H](O)c1nnc(C2CCCC(NC(=O)c3cc(-c4ccccc4)on3)C2)o1 (some centres unmarked)
Ieq (% VX-809): * (activity 100-200% of VX-809 (1 uM) with compound at 10 uM and VX-809 at 1 uM)

O=C(N[C@H]1C[C@@H](CCO)C1)c1cc(-c2ccccc2)on1
Ieq (% VX-809): ** (activity ≥200% of VX-809 (1 uM) with compound at 10 uM and VX-809 at 1 uM)

C[C@H](O)c1noc(C2CC(NC(=O)c3cc(-c4ccccc4)on3)C2)n1 (some centres unmarked)
Ieq (% VX-809): ** (activity ≥200% of VX-809 (1 uM) with compound at 10 uM and VX-809 at 1 uM)

O=C(N[C@H]1C[C@H](CCO)C1)c1cc(-c2ccccc2)on1
Ieq (% VX-809): ** (activity ≥200% of VX-809 (1 uM) with compound at 10 uM and VX-809 at 1 uM)

C[C@H](O)c1ccn([C@H]2C[C@H](NC(=O)c3cc(-c4ccccc4)on3)C2)n1
Ieq (% VX-809): ** (activity ≥200% of VX-809 (1 uM) with compound at 10 uM and VX-809 at 1 uM)

O=C(N[C@H]1C[C@@H](c2nnc(CO)o2)C1)c1cc(-c2ccccc2)on1
Ieq (% VX-809): ** (activity ≥200% of VX-809 (1 uM) with compound at 10 uM and VX-809 at 1 uM)

C[C@H](O)c1cnn([C@H]2C[C@H](NC(=O)c3cc(-c4ccccc4)on3)C2)c1
Ieq (% VX-809): ** (activity ≥200% of VX-809 (1 uM) with compound at 10 uM and VX-809 at 1 uM)

C[C@H](O)c1nnc(C[C@H]2C[C@H](NC(=O)c3cc(-c4ccccc4)on3)C2)o1
Ieq (% VX-809): ** (activity ≥200% of VX-809 (1 uM) with compound at 10 uM and VX-809 at 1 uM)

C[C@@H](O)c1nnc(C[C@H]2C[C@@H](NC(=O)c3cc(-c4ccccc4)on3)C2)s1
Ieq (% VX-809): ** (activity ≥200% of VX-809 (1 uM) with compound at 10 uM and VX-809 at 1 uM)

C[C@@H](O)c1nc([C@H]2C[C@@H](NC(=O)c3cc(-c4ccccc4)on3)C2)no1
Ieq (% VX-809): * (activity 100-200% of VX-809 (1 uM) with compound at 10 uM and VX-809 at 1 uM)

C[C@@H](O)c1nnc([C@H]2C[C@@H](NC(=O)c3cc(-c4ccc(F)c(F)c4)on3)C2)o1
Ieq (% VX-809): * (activity 100-200% of VX-809 (1 uM) with compound at 10 uM and VX-809 at 1 uM)

C[C@@H](O)c1nnc([C@H]2C[C@@H](NC(=O)c3cc(-c4ccc(F)cc4F)on3)C2)o1
Ieq (% VX-809): * (activity 100-200% of VX-809 (1 uM) with compound at 10 uM and VX-809 at 1 uM)

C[C@@H](OC(=O)c1ccccc1)c1nnc([C@H]2C[C@H](NC(=O)c3cc(-c4ccccc4)on3)C2)o1
Ieq (% VX-809): * (activity 100-200% of VX-809 (1 uM) with compound at 10 uM and VX-809 at 1 uM)

CS(=O)(=O)NC[C@H]1C[C@@H](NC(=O)c2cc(-c3ccccc3)on2)C1
Ieq (% VX-809): * (activity 100-200% of VX-809 (1 uM) with compound at 10 uM and VX-809 at 1 uM)
